From US10145845B2, “On-chip assay for environmental surveillance” (priority 2015, dated 2018)

Columns and labels:
[1] = drafted three tiered IDLHs; cited from earlier work
RAD54 protein = conditions: yeast cells, H2O2 170, 1700 and 17,000 ppm for 60 minutes
Procedure: Yeast cells grown in YPD (for Yeast-extract, Peptone and Dextrose culture medium) was harvested in early saturation phase of growth and distributed into the first row of the microchip (A1 through A3), covered with a plexiglass lid and stored as slurries (10^7 cells) at 4° C. until use. H2O2 was added to experimental wells and deionized water to the control well.
A single time, multiple dose study was done at 170, 1700 and 17,000 ppm for 60 minutes. Y-PER (for Yeast-Protein Extraction Reagent) supplemented with protease inhibitor cocktail was added to the cells and incubated for 20 minutes at room temperature (RT).
The supernatant (cell extract) was transferred using an ultrafine pipette tip to the second row of wells (B1 through B3) and incubated with the colloidal SERS immunosensor for RAD54 detection by incubating for 90 minutes at RT. […]
The spectra were analyzed by multivariate PCA-LDA (principle component analysis and linear discriminant analysis) using the leave-one-out cross validation model. The levels of RAD54 protein were measured using the SERS-linked immunosensor assay and RAD54 levels expressed in response to H2O2 were correlated to EPA 3-tier guideline levels, IDLHs (for Immediately Dangerous to Life and Health concentrations) as determined by the Center for Disease Control and Prevention (CDC).

OO [H2O2, Hydrogen peroxide]
IDLH tier II (lethal, long-lasting disabling effect) [1]: ≤ 1000 ppm | IDLH tier III (lethal, life-threatening effect or even death) [1]: > 1000 ppm | peak intensity of protein measured at 1390 cm^-1 (carboxylic band, SLISA) (RAD54 protein): dose-dependent increase | increase in RAD54 expression as compared to control (baseline expression by cells with no toxin exposure) (RAD54 protein; SLISA and ELISA): ~4 fold
